Reference: patent publication US12404279B2, “Deubiquitinase inhibitors and methods of use thereof” (Molecure S.A., priority 2021, dated 2025)
Entries after “also recorded” stand apart in the source; their conditions may differ.

Key:
[1] = biological target: full-length USP7 (Homo sapiens (Human), UniProt Q93009); assay: Enzymatic assay to determine IC50 of USP7 inhibitors (Ubiquitin-Rhodamine 110 cleavage); type: biochemical; conditions: 0.5 nM USP7, 0.5 μM Ubiquitin-Rhodamine 110, 45 min at 37° C.
Chain of full-length USP7 (Q93009 whole entry): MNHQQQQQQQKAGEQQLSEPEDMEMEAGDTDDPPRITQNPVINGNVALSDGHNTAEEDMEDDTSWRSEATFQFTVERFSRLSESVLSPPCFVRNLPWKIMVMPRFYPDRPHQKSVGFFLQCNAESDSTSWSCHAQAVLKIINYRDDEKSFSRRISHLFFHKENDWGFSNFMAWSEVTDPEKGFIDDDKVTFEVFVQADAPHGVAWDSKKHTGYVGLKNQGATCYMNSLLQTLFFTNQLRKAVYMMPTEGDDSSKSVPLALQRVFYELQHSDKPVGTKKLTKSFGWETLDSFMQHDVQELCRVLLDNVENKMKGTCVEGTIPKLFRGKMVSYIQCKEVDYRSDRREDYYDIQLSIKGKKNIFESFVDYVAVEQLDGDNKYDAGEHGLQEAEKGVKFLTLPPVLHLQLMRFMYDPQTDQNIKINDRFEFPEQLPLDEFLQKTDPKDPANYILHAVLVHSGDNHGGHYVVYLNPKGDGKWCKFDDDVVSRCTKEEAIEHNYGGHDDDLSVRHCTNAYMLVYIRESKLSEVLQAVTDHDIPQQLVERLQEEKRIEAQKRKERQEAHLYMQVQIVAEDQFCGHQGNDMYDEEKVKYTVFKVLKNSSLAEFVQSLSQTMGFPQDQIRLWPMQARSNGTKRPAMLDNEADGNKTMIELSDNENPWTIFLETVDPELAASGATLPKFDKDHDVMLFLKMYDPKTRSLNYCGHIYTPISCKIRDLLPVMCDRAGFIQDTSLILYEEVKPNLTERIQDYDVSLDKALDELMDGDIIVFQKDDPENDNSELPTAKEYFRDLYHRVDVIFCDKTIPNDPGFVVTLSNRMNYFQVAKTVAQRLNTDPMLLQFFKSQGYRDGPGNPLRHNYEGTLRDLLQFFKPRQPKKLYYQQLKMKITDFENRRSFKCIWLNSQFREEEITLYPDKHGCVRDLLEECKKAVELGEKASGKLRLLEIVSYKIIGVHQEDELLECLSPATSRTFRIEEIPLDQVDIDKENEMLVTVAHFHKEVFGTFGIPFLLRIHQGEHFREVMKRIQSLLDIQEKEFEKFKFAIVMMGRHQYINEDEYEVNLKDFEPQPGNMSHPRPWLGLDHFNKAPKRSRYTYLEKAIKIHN
Method in brief: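 Full-length USP7 (0.5 nM) in 50 mM HEPES pH 7.5, 150 mM NaCl, 1 mM DTT, 1 mg/ml BSA, 0.05% Tween20 was preincubated 15 min with DTT at room temperature before compound addition.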

[2] = Immunomodulatory effect on isolated, anti-CD3/anti-CD28 activated CD4+ T cells from C57BL/6 mice; type: cell-based; conditions: C57BL/6; activated mouse CD4+ T cells, 72 h; read-out: cytotoxicity IC50 (cell viability, CellTiter Glo Assay)
Source text: (§1) Splenocytes from three C57BL/6 mice donors were isolated separately. Next, specific CD4^+ cells were extracted from all splenocytes with EasySep™ Mouse CD4^+ T cell Isolation Kit by negative selection (StemCell; Cat. #19852). The purity of splenic CD4^+ T cells exceeded 95%, as confirmed by flow cytometric analysis following staining with anti-mouse CD3 and CD4 antibodies. Pure CD4^+ cells were subsequently seeded in RPMI full medium (50 000 cells/well) on 96-well U-bottom plate covered with 1 μg/mL antiCD3 and 1 μg/mL antiCD28 (for stimulation and activation). Then. […] The final concentration of DMSO in wells was 0.03%. After 72 h, lymphocyte activation was evaluated by counting, testing viability (LDH Assay, CellTiter Glo Assay) and cytokine. Statistical significance of observed effects was determined based on mean values calculated from technical replicates for each mouse (n=9; experiment was performed three times). • 1. ATP level in cell lysates (CellTiterGlo Viability Assay. Promega;) • 2. LDH level in cell culture medium • 3. Cell counting (Orange-Acridine staining, Luna automated cell counter, Logos Biosystems) • 4. mTNF-α in supernatants (ELISA) • 5. mIFN-γ in supernatants (ELISA) • 6. Magpix Luminex (T-Cells Panel: GM-CSF, IFN-γ, IL-10 TNF-α)

[3] = test system: CD4+ T cells; assay: as above; type: cell-based
Source text: as §1

[4] = test system: CD4+ T cells; assay: In vivo and ex vivo immunomodulatory effect in BALB/c mice (splenic CD4+ T cells); type: cell-based
Procedure: BALB/c mice (10-week-old females, n=3) were administered with Example 77 at 200 mg/kg (BID) by oral gavage for 3 consecutive days. Untreated mice were used as the control group (n=3). Animals were sacrificed 16 hours following the last dosing. The spleens were collected and total CD4^+ lymphocytes were isolated by bead-based negative separation according to the manufacturers manual (EasySep™ Mouse CD4+ T cell Isolation Kit, StemCell; Cat. #19852). The purity of splenic CD4^+ T cells exceeded 95%, as confirmed by flow cytometric analysis following staining with anti-mouse CD3 and CD4 antibodies. Isolated CD4^+ T cells were seeded in triplicates (50 000 cells/well in RPMI full medium) on 96-well U-bottom plate covered with 1 μg/mL anti-CD3 and 1 μg/mL anti-CD28 antibodies (for stimulation and activation of cells). Following one hour preincubation in 37° C. degree, CD4^+ T cells were treated with 2 μM of Example 77, the final concentration of DMSO in wells was 0.03%. After 72 h lymphocytes activation was evaluated by testing viability, cytotoxicity and cytokine release: mTNF-α and mIFN-γ.
• 1. ATP level in cell lysates (CellTiterGlo Viability Assay, Promega) • 2. Lactate dehydrogenase (LDH) level in cell culture medium (LDH-Glo Cytotoxicity Assay, Promega) • 3. Cell counting (Fluorescence staining, Luna automated cell counter, Logos Biosystems) • 4. mTNF-α in supernatants by ELISA • 5. mIFN-γ in supernatants by ELISA

[5] = test system: CT26 cells; assay: Killing assay: splenocytes of tumor-bearing mice co-cultured with CT26 cells; type: cell-based, mouse; conditions: co-culture with CT26 cells 1:10 and 1:50, 36 h
Procedure: To investigate the killing capability of T cells the splenocytes were isolated from tumor-bearing mice treated and untreated with different concentrations of Example 77. CT26 cells were seeded and stained with Green Cell Tracker. Stained CT26 cells were co-cultured with splenocytes from experimental animals in two ratios 1:10 and 1:50. After 36 h cells were harvested and analyzed on the flow cytometer.

[6] = test system: mouse CD8+ T cells; assay: Cytotoxic effect on mouse CD8+ T cells (splenocytes, flow cytometry); type: cell-based; conditions: 24 hours of incubation
Procedure: In these experiments, the mouse splenocytes were seeded into in 24-well plate and after 24 hours of incubation with USP7 inhibitors the T cells viability was analyzed with flow cytometry. […] Mann-Whitney test.

[7] = test system: CT26 model of colon carcinoma; assay: Antitumor efficacy in the subcutaneous CT26 syngeneic model of colon carcinoma
Procedure: The 7-8-week old BALB/c females (BALB/cAnNCrl, Charles River Laboratories) were injected subcutaneously in the right flank with 5×10^5 CT26 cells. USP7 inhibitors were dosed by oral gavage twice per day at indicated doses starting from 2-5 days after the tumor implantation. […] Tumor volume was estimated by a formula: width×length×depth×π/6.

[8] = 0.5-2.5 μM, 72 h, ELISA / Magpix Luminex
[9] = 0.5-2.5 μM, 72 h, Magpix Luminex
[10] = 2 μM, 72 h, LDH-Glo cytotoxicity assay

CN[C@H]1CCN(C(=O)c2c(C)cc(C(F)(F)F)nc2-c2ccnc3cc(CN4C(=O)C5C(C4=O)C5(C)C)sc23)C1.Cl.Cl (stereo partly drawn) [Example 77, 6,6-dimethyl-3-((7-(4-methyl-3-((S)-3-(methylamino)pyrrolidine-1-carbonyl)-6-(trifluoromethyl)pyridin-2-yl)thieno[3,2-b]pyridin-2-yl)methyl)-3-azabicyclo[3.1.0]hexane-2,4-dione dihydrochloride]
IC50 [1]: < 0.5 µM | IC50 at 72 h [2]: ~9 µM | IFNg level in supernatants [3, 8]: Statistically significant increase | TNFa level in supernatants [3, 8]: not affected | GM-CSF level in supernatants [3, 9]: Statistically significant increase | IL-10 level in supernatants [3, 9]: not affected | times less cytotoxic than the reference RAPT compound ([3]; CellTiter Glo Assay, head to head): 10 | viability by cell counting (Luna cell counter, trypan blue) ([3]; after 72 h of incubation): comparable to that obtained with CellTiter Glo | CD4+ T cells activation and pro-inflammatory cytokine release ([3]; low concentration (0.5-2.5 μM)): does not disturb | pro-inflammatory cytokines release after additional ex vivo treatment of isolated T-cells ([4]; 2 μM ex vivo, 72 h): additionally increases | total ATP level (CellTiter Glo Assay) ([4]; 2 μM, 72 h): didn't affect | CD4+ T cells activation and pro-inflammatory cytokines release: TNF-α and IFN-γ ([4]; 2 μM, 72 h, ELISA): does not affect | LDH concentration in the culture medium vs. positive control [4, 10]: ≤ 5% | cytotoxicity for CD4+ T-cells [4, 10]: not cytotoxic | T cells viability ([4]; CD4+ T cells, 2 μM, 72 h): does not affect | ex vivo pro-inflammatory cytokine release of activated CD4+ T cells from treated mice vs. control mice ([4]; mice dosed 200 mg/kg BID by oral gavage for 3 days): much more | killing capability of splenocytes from treated CT26-bearing mice vs. control mice [5]: enhanced killing capability | cytotoxicity to CD8 T cells [6]: limited | TGI ([7]; 100 mg/kg PO BID, anti-PD-1 combination experiment): 69% | increase in survival time vs. anti-PD-1 monotherapy group ([7]; 100 mg/kg PO BID, log-rank test): 26% | percent of CD8+ T cells in tumor ([7]; 100 mg/kg, cytometric analysis): increase | interferon-γ production in CD8+ T cells ([7]; 100 mg/kg, data not shown): enhanced amounts | granzyme B production in CD8+ T cells ([7]; 100 mg/kg, flow cytometry): enhanced amounts | antitumor effect after injection of CD8-depleting anti-CD8 antibodies ([7]; anti-CD8 antibody 100 μg intraperitoneally on days 1, 7 and 14, dihydrochloride): completely abrogated; also recorded: requires CD8+ T cells | effect on the therapeutic effect of anti-PD-1 antibody ([7]; combination with anti-PD-1 antibody, dihydrochloride): potentiated; also recorded: increases the efficiency | tumor growth inhibition (TGI) ([7]; dose-dependent, oral gavage BID, day 20 post-inoculation, p=0.048): up to 67% | survival time ([7]; survival analysis, anti-PD-1 combination experiment): 29 days
